Test results taken from patent US12052991B2, “Substituted pyridinyloxybenzenes and salts thereof and use thereof as herbicidal agents” (Bayer Aktiengesellschaft, priority 2018, dated 2024).

Assays:
Type in all cases: in vivo
[1] = tested on: Lolium rigidum (LOLRI); assay: Herbicidal post-emergence action (Table B2); conditions: 1280 g/ha; rated visually after about 3 weeks; 100% = plants have died, 0% = like control plants
Method: (§1) Seeds of mono- and dicotyledonous weed plants were placed in plastic pots in sandy loam soil (doubly sown with in each case one species of mono- or dicotyledonous weed plants per pot), covered with soil and cultivated in a greenhouse under controlled growth conditions. 2 to 3 weeks after sowing, the test plants were treated at the one-leaf stage. The compounds of the invention, formulated in the form of wettable powders (WP) or as emulsion concentrates (EC), were applied onto the green parts of the plants as aqueous suspension or emulsion with addition of 0.5% additive at a water application rate of 600 liters per hectare (converted). After the test plants had been kept in the greenhouse under optimum growth conditions for about 3 weeks, the activity of the preparations was rated visually in comparison to untreated controls. For example, 100% activity=the plants have died, 0% activity=like control plants. Tables B1 to B12 below show the effects of selected compounds of the general formula (I) according to Table 1 on various harmful plants and an application rate corresponding to 1280 or 320 g/ha, which were obtained by the experimental procedure mentioned above.

[2] = tested on: Setaria viridis (SETVI); assay: Herbicidal post-emergence action (Table B4); conditions: 1280 g/ha; rated visually after about 3 weeks; 100% = plants have died, 0% = like control plants
Method: as §1

[3] = tested on: Abutilon theophrasti (ABUTH); assay: Herbicidal post-emergence action (Table B5); conditions: rated visually after about 3 weeks, 100% = plants have died, 0% = like control plants
In short: (§2)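 Weeds grown from seed in sandy loam in the greenhouse were sprayed at the one-leaf stage, 2 to 3 weeks after sowing, with WP or EC formulations in water plus 0.5% additive at 600 L/ha. Rates corresponded to 1280 or 320 g/ha; damage was rated visually versus untreated controls after about 3 weeks.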

[4] = tested on: Amaranthus retroflexus (AMARE); assay: Herbicidal post-emergence action (Table B6); conditions: visual rating about 3 weeks after treatment, 100% = plants have died, 0% = like control plants
In short: as §2

[5] = tested on: Stellaria media (STEME); assay: Herbicidal post-emergence action (Table B8); conditions: visual rating about 3 weeks after treatment, 100% = plants have died, 0% = like control plants
In short: as §2

[6] = tested on: Alopecurus myosuroides (ALOMY); assay: Herbicidal post-emergence action (Table B9); conditions: rated visually after about 3 weeks, 100% = plants have died, 0% = like control plants
In short: as §2

[7] = tested on: Digitaria sanguinalis (DIGSA); assay: Herbicidal post-emergence action (Table B10); conditions: visual rating about 3 weeks after treatment, 100% = plants have died, 0% = like control plants
In short: as §2

[8] = tested on: Bassia scoparia (KCHSC); assay: Herbicidal post-emergence action (Table B11); conditions: visual rating about 3 weeks after treatment, 100% = plants have died, 0% = like control plants
In short: as §2

[9] = tested on: Veronica persica (VERPE); assay: Herbicidal post-emergence action (Table B12); conditions: visual rating about 3 weeks after treatment, 100% = plants have died, 0% = like control plants
In short: as §2

[10] = tested on: Echinochloa crus-galli (ECHCG); assay: Herbicidal pre-emergence action, test C (Table C1); conditions: visual scoring after about 3 weeks, 100% = plants have died, 0% = like control plants
In short: (§3)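 Sandy loam, doubly sown pots; surface spray pre-emergence; 1280 or 320 g/ha; 0.5% additive; 600 L/ha. Greenhouse, ~3 weeks. Visual % vs untreated.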

[11] = tested on: Lolium rigidum (LOLRI); assay: Herbicidal pre-emergence action, test C (Table C2); conditions: dosage 1280 g/ha; visual scoring after about 3 weeks; 100% = plants have died, 0% = like control plants
In short: as §3

[12] = tested on: Poa annua (POAAN); assay: Herbicidal pre-emergence action, test C (Table C3); conditions: visual scoring after about 3 weeks, 100% = plants have died, 0% = like control plants
In short: as §3

[13] = tested on: Setaria viridis (SETVI); assay: Herbicidal pre-emergence action, test C (Table C4); conditions: visual scoring after about 3 weeks, 100% = plants have died, 0% = like control plants
In short: as §3

[14] = tested on: Abutilon theophrasti (ABUTH); assay: Herbicidal pre-emergence action, test C (Table C5); conditions: visual scoring after about 3 weeks, 100% = plants have died, 0% = like control plants
In short: as §3

[15] = tested on: Amaranthus retroflexus (AMARE); assay: Herbicidal pre-emergence action, test C (Table C6); conditions: visual scoring after about 3 weeks, 100% = plants have died, 0% = like control plants
In short: as §3

[16] = tested on: Matricaria inodora (MATIN); assay: Herbicidal pre-emergence action, test C (Table C7); conditions: visual scoring after about 3 weeks, 100% = plants have died, 0% = like control plants
In short: as §3

[17] = tested on: Stellaria media (STEME); assay: Herbicidal pre-emergence action, test C (Table C8); conditions: visual scoring after about 3 weeks, 100% = plants have died, 0% = like control plants
In short: as §3

[18] = tested on: Alopecurus myosuroides (ALOMY); assay: Herbicidal pre-emergence action, test C (Table C9); conditions: visual scoring after about 3 weeks, 100% = plants have died, 0% = like control plants
In short: as §3

[19] = tested on: Digitaria sanguinalis (DIGSA); assay: Herbicidal pre-emergence action, test C (Table C10); conditions: visual scoring after about 3 weeks, 100% = plants have died, 0% = like control plants
In short: as §3

[20] = tested on: Bassia scoparia (KCHSC); assay: Herbicidal pre-emergence action, test C (Table C11); conditions: visual scoring vs untreated controls
Text: Seeds of mono- and dicotyledonous weed plants were placed in plastic pots in sandy loam soil (doubly sown with one species each of mono- or dicotyledonous weed plants per pot) and covered with soil. The compounds of the invention, formulated in the form of wettable powders (WP) or as emulsion concentrates (EC), were then applied onto the surface of the covering soil as aqueous suspension or emulsion with addition of 0.5% additive at a water application rate of 600 liters per hectare (converted). After the treatment, the pots were placed in a greenhouse and kept under good growth conditions for the test plants. After about 3 weeks, the effect of the preparations was scored visually in comparison with untreated controls as percentages. For example, 100% activity=the plants have died, 0% activity=like control plants. Tables C1 to C12 below show the effects of selected compounds of the general formula (I) according to Table 1 on various harmful plants and an application rate corresponding to 1280 or 320 g/ha, which were obtained by the experimental procedure mentioned above.

[21] = tested on: Veronica persica (VERPE); assay: Herbicidal pre-emergence action, test C (Table C12); conditions: visual scoring vs untreated controls
In short: as §3

[22] = tested on: harmful plants ABUTH, AMARE, ECHCG, LOLRI, MATIN, POAAN, SETVI, STEME, ALOMY, DIGSA, KCHSC and VERPE; assay: Herbicidal post-emergence action, summary of Tables B1-B12; conditions: application rate of 1280 or 320 g of active ingredient per hectare; summary in words
In short: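 Greenhouse weeds in sandy loam treated post-emergence at the one-leaf stage, 2–3 weeks after sowing, with WP or EC formulations sprayed with 0.5% additive at 600 L/ha water, 1280 or 320 g/ha. Damage rated visually after about 3 weeks versus untreated controls (0% = like control, 100% = dead).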

[23] = tested on: harmful plants ABUTH, AMARE, ECHCG, LOLRI, MATIN, POAAN, SETVI, STEME, ALOMY, DIGSA, KCHSC and VERPE; assay: Herbicidal pre-emergence action (test C), summary of Tables C1-C12; conditions: application rate of 1280 or 320 g of active ingredient per hectare; summary in words
In short: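 Pre-emergence pot test in sandy loam: WP or EC formulations were sprayed onto the covering soil with 0.5% additive at 600 L/ha water, at 1280 or 320 g/ha. Plants were kept in the greenhouse, and activity was rated visually about 3 weeks later as % versus untreated controls (100% = dead).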

[24] = tested on: Echinochloa crus-galli (ECHCG); assay: Herbicidal post-emergence action (Table B1); conditions: 1280 g/ha; rated visually after about 3 weeks; 100% = plants have died, 0% = like control plants
In short: as §2

[25] = tested on: Matricaria inodora (MATIN); assay: Herbicidal post-emergence action (Table B7); conditions: 1280 g/ha; rated visually after about 3 weeks; 100% = plants have died, 0% = like control plants
Method: as §1

Fc1cc(Cl)cnc1Oc1ccccc1-c1cncc(C(F)(F)F)c1 [Example 1-72]
90%: Post-emergence action against Setaria viridis (SETVI) [2] | Post-emergence action against Digitaria sanguinalis (DIGSA) ([7]; dosage 320 g/ha) | Pre-emergence action against Matricaria inodora (MATIN) ([16]; dosage 320 g/ha) | Pre-emergence action against Stellaria media (STEME) ([17]; dosage 320 g/ha)
very good herbicidal activity: herbicidal activity against the harmful plants of Tables B1-B12 in post-emergence treatment [22] | herbicidal activity against the harmful plants of Tables C1-C12 in pre-emergence treatment [23]
100%: Post-emergence action against Lolium rigidum (LOLRI) [1] | Post-emergence action against Abutilon theophrasti (ABUTH) ([3]; 320 g/ha) | Post-emergence action against Abutilon theophrasti (ABUTH) ([3]; 1280 g/ha) | Post-emergence action against Amaranthus retroflexus (AMARE) ([4]; dosage 320 g/ha) | Post-emergence action against Amaranthus retroflexus (AMARE) ([4]; dosage 1280 g/ha) | Post-emergence action against Stellaria media (STEME) ([5]; dosage 320 g/ha) | Post-emergence action against Stellaria media (STEME) ([5]; dosage 1280 g/ha) | Post-emergence action against Alopecurus myosuroides (ALOMY) ([6]; 320 g/ha) | Post-emergence action against Alopecurus myosuroides (ALOMY) ([6]; 1280 g/ha) | Post-emergence action against Digitaria sanguinalis (DIGSA) ([7]; dosage 1280 g/ha) | Post-emergence action against Bassia scoparia (KCHSC) ([8]; dosage 320 g/ha) | Post-emergence action against Bassia scoparia (KCHSC) ([8]; dosage 1280 g/ha) | Post-emergence action against Veronica persica (VERPE) ([9]; dosage 320 g/ha) | Post-emergence action against Veronica persica (VERPE) ([9]; dosage 1280 g/ha) | Pre-emergence action against Echinochloa crus-galli (ECHCG) ([10]; dosage 320 g/ha) | Pre-emergence action against Echinochloa crus-galli (ECHCG) ([10]; dosage 1280 g/ha) | Pre-emergence action against Lolium rigidum (LOLRI) [11] | Pre-emergence action against Poa annua (POAAN) ([12]; dosage 320 g/ha) | Pre-emergence action against Poa annua (POAAN) ([12]; dosage 1280 g/ha) | Pre-emergence action against Setaria viridis (SETVI) ([13]; dosage 320 g/ha) | Pre-emergence action against Setaria viridis (SETVI) ([13]; dosage 1280 g/ha) | Pre-emergence action against Abutilon theophrasti (ABUTH) ([14]; dosage 320 g/ha) | Pre-emergence action against Abutilon theophrasti (ABUTH) ([14]; dosage 1280 g/ha) | Pre-emergence action against Amaranthus retroflexus (AMARE) ([15]; dosage 320 g/ha) | Pre-emergence action against Amaranthus retroflexus (AMARE) ([15]; dosage 1280 g/ha) | Pre-emergence action against Matricaria inodora (MATIN) ([16]; dosage 1280 g/ha) | Pre-emergence action against Stellaria media (STEME) ([17]; dosage 1280 g/ha) | Pre-emergence action against Alopecurus myosuroides (ALOMY) ([18]; dosage 320 g/ha) | Pre-emergence action against Alopecurus myosuroides (ALOMY) ([18]; dosage 1280 g/ha) | Pre-emergence action against Digitaria sanguinalis (DIGSA) ([19]; dosage 320 g/ha) | Pre-emergence action against Digitaria sanguinalis (DIGSA) ([19]; dosage 1280 g/ha) | Pre-emergence action against Bassia scoparia (KCHSC) ([20]; dosage 320 g/ha) | Pre-emergence action against Bassia scoparia (KCHSC) ([20]; dosage 1280 g/ha) | Pre-emergence action against Veronica persica (VERPE) ([21]; dosage 320 g/ha) | Pre-emergence action against Veronica persica (VERPE) ([21]; dosage 1280 g/ha)

Clc1ccc(Oc2ccccc2-c2ccc(Cl)cn2)nc1 [Example 1-75]
90%: Post-emergence action against Alopecurus myosuroides (ALOMY) ([6]; 1280 g/ha)
very good herbicidal activity: herbicidal activity against the harmful plants of Tables B1-B12 in post-emergence treatment [22]
100%: Post-emergence action against Echinochloa crus-galli (ECHCG) [24] | Post-emergence action against Matricaria inodora (MATIN) [25] | Post-emergence action against Veronica persica (VERPE) ([9]; dosage 1280 g/ha)
